Values of other authors, collected in article PMC2765482 (Journal of medicinal chemistry, 2009).
Marks after values point to notes of the source that are not given here.

How the values were obtained:
[1] = system: Staphylococcus aureus strain ATCC 25923 (vancomycin-sensitive); conditions: vancomycin-sensitive strain ATCC 25923; ref [18b] (text: ref [4],[18])
[2] = system: N,N′-Ac2-L-Lys-D-Ala-D-Ala (2); conditions: ligand N,N′-Ac2-L-Lys-D-Ala-D-Ala; ref [4]
[3] = system: Enterococcus faecalis strain BM4166 (vancomycin-resistant, VanA); conditions: ref [18b]
[4] = system: N,N′-Ac2-L-Lys-D-Ala-D-Lac (3); conditions: for Association Constants 3 (Ka): ligand N,N′-Ac2-L-Lys-D-Ala-D-Lac, ref [4]
[5] = system: Enterocococci bacterial strains, VanA and VanB; conditions: VanA and VanB resistant versus sensitive; ref [1d,k]
[6] = system: vancomycin-sensitive bacteria and vancomycin-resistant Enterococci (VRE); conditions: against vancomycin-sensitive bacteria and VRE; ref [9]
[7] = versus vancomycin; ref [11]

Substance | MIC S. aureus [1] | Association Constants 2 (Ka) [2] | MIC E. faecalis [3] | Association Constants 3 (Ka) [4] | drop in antimicrobial activity [5] [fold] | reduction of affinity for the ligand on D-Ala to D-Lac modification (NH→O) ([4]; D-Ala-D-Lac versus D-Ala-D-Ala ligand, ref [1d,k]) [fold] | more active than vancomycin [6] | enhancement of antimicrobial properties [7] [fold]
vancomycin aglycon [Compound 5] | 0.625 ^e µg/mL | 1.7 ^f ×10^5 M^−1 | 640 ^e µg/mL | 1.2 ^f ×10^2 M^−1 | – | – | – | –
Vancomycin [Compound 1] | 1.25 ^e µg/mL | 2.0 ^f ×10^5 M^−1 | 2000 ^e µg/mL | 1.8 ^f ×10^2 M^−1 | 1000 | 1000 | – | –
Chlorobiphenyl vancomycin | – | – | – | – | – | – | ca. 100 fold | –
N-demethylvancomycin | – | – | – | – | – | – | – | 2
